Data published in PubChem BioAssay AID2060338 (Molecular Pharmacology Branch, DTP, NCI, 2025).
Values joined by “and” are separate entries in the source; they are usually repeats but may differ in a detail not shown here. Identical values can stand only once.

Tested on: 556581-035-R-J1-PDC spheroids with HUVEC/MSC, viability
Assay: Anticancer human tumor 556581-035-R-J1-PDC patient-derived ovarian carcinoma cell line growth inhibition [IpAb]
Conditions: for viability, T/C: stronger effect = lower value
How it was run: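 Combinations with ipatasertib or abemaciclib were tested on tumour spheroids holding HUVEC (25%) and MSC (15%) alongside 60% malignant cells. Top concentration was at or near clinical Cmax (10 microM if undefined), descending in half-log steps.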

[1] = curve of first compound, second compound 0.01 µM
[2] = curve of first compound, second compound 0.0316 µM
[3] = curve of first compound, second compound 0.1 µM
[4] = curve of first compound, second compound 0.316 µM
[5] = curve of first compound, second compound 1 µM
[6] = second compound 0.01 µM, first compound 0.0316 µM
[7] = second compound 0.01 µM, first compound 0.1 µM
[8] = second compound 0.01 µM, first compound 0.316 µM
[9] = second compound 0.01 µM, first compound 1 µM
[10] = second compound 0.01 µM, first compound 3.16 µM
[11] = second compound 0.01 µM, first compound 10 µM
[12] = second compound 0.0316 µM, first compound 0.0316 µM
[13] = second compound 0.0316 µM, first compound 0.1 µM
[14] = second compound 0.0316 µM, first compound 0.316 µM
[15] = second compound 0.0316 µM, first compound 1 µM
[16] = second compound 0.0316 µM, first compound 3.16 µM
[17] = second compound 0.0316 µM, first compound 10 µM
[18] = second compound 0.1 µM, first compound 0.0316 µM
[19] = second compound 0.1 µM, first compound 0.1 µM
[20] = second compound 0.1 µM, first compound 0.316 µM
[21] = second compound 0.1 µM, first compound 1 µM
[22] = second compound 0.1 µM, first compound 3.16 µM
[23] = second compound 0.1 µM, first compound 10 µM
[24] = second compound 0.316 µM, first compound 0.0316 µM
[25] = second compound 0.316 µM, first compound 0.1 µM
[26] = second compound 0.316 µM, first compound 0.316 µM
[27] = second compound 0.316 µM, first compound 1 µM
[28] = second compound 0.316 µM, first compound 3.16 µM
[29] = second compound 0.316 µM, first compound 10 µM
[30] = second compound 1 µM, first compound 0.0316 µM
[31] = second compound 1 µM, first compound 0.1 µM
[32] = second compound 1 µM, first compound 0.316 µM
[33] = second compound 1 µM, first compound 1 µM
[34] = second compound 1 µM, first compound 3.16 µM
[35] = second compound 1 µM, first compound 10 µM
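Also: spheroids exposed to compounds for 7 days before readout.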

SMILES	IC50 [1]	IC50 [2]	IC50 [3]	IC50 [4]	IC50 [5]	viability, T/C [6]	viability, T/C [7]	viability, T/C [8]	viability, T/C [9]	viability, T/C [10]	viability, T/C [11]	viability, T/C [12]	viability, T/C [13]	viability, T/C [14]	viability, T/C [15]	viability, T/C [16]	viability, T/C [17]	viability, T/C [18]	viability, T/C [19]	viability, T/C [20]	further results
Cn1nccc1Nc1nccc(-c2ccn(C(CO)c3ccc(Cl)c(F)c3)c(=O)c2)n1 (configuration not stated) + CCN1CCN(Cc2ccc(Nc3ncc(F)c(-c4cc(F)c5nc(C)n(C(C)C)c5c4)n3)nc2)CC1	9080 nM	6090 nM	5330 nM	7520 nM	5340 nM	110%	145%	127%	109%	95.4%	45.8%	119%	140%	128%	98.5%	72%	34.8%	107%	123%	134%	viability, T/C [21]: 119%; viability, T/C [22]: 63.4%; viability, T/C [23]: 33.8%; viability, T/C [24]: 92.2%; viability, T/C [25]: 103%; viability, T/C [26]: 144%; viability, T/C [27]: 101%; viability, T/C [28]: 87.3%; viability, T/C [29]: 37.9%; viability, T/C [30]: 78%; viability, T/C [31]: 85.5%; viability, T/C [32]: 128%; viability, T/C [33]: 72.3%; viability, T/C [34]: 71.5%; viability, T/C [35]: 27.2%
Cc1nc(NC(=O)N2CCCC2C(N)=O)sc1-c1ccnc(C(C)(C)C(F)(F)F)c1 (configuration not stated)																					viability, T/C (compound 0.0316 µM): 84.4% and 80.2%; viability, T/C (compound 0.1 µM): 73.3% and 72.6%; viability, T/C (compound 0.316 µM): 58.8% and 56.2%; viability, T/C (compound 1 µM): 40.9% and 42%; viability, T/C (compound 3.16 µM): 28.5% and 31.8%; viability, T/C (compound 10 µM): 9.2% and 11.3%; IC50 (curve of compound): 594 nM and 608 nM
Cn1ncc(Cl)c1-c1cc(C(=O)NC(CN)Cc2cccc(F)c2)sc1Cl (configuration not stated) + CCN1CCN(Cc2ccc(Nc3ncc(F)c(-c4cc(F)c5nc(C)n(C(C)C)c5c4)n3)nc2)CC1	1610 nM	1800 nM	1540 nM	1170 nM	402 nM	96%	81.6%	64.2%	60.7%	44.3%	0.26%	85.4%	78.5%	79.1%	56.9%	41.1%	0.2%	91.4%	82.2%	63.9%	viability, T/C [21]: 54.2%; viability, T/C [22]: 47.1%; viability, T/C [23]: 0.18%; viability, T/C [24]: 88.5%; viability, T/C [25]: 92.3%; viability, T/C [26]: 54.8%; viability, T/C [27]: 60.6%; viability, T/C [28]: 31.5%; viability, T/C [29]: 12.4%; viability, T/C [30]: 56.7%; viability, T/C [31]: 54.3%; viability, T/C [32]: 50.5%; viability, T/C [33]: 44.7%; viability, T/C [34]: 25.6%; viability, T/C [35]: 0.54%
